This is an account of results in patent US12329801B2, “Regenerative polypeptides and uses thereof” (JUVENA THERAPEUTICS, INC., priority 2021, dated 2025).

Data set [1] relates to human myoblast cells. The data set is described as follows: Differentiation of human myoblast cells (MyHC immunostaining, percentage area). As to conditions: Fc4 fusions, 96 hours with daily media change, concentration not printed (FIG. 1B). The format is cell-based. The procedure: FIG. 1A: The suspension CHO cells were transiently transfected with the IGF2-hFcm encoding plasmid. IGF2-hFcm was affinity-purified by Protein A membrane column. The purified IGF2-hFcm was added into the culture of human myoblast cells for 96 hours. Myosin heavy chain (MyHC) was immunostained and imaged by a fluorescence microscope.
FIG. 1B: The suspension CHO cells were transiently transfected with the IGF2-LhFc4 encoding plasmid. IGF2-LhFc4 was affinity-purified by Protein A membrane column. The purified IGF2-LhFc4 was added into the culture of human myoblast cells for 96 hours with daily media change. Myosin heavy chain (MyHC) was immunostained and imaged by a fluorescence microscope.
FIG. 2A: The suspension CHO cells were transiently transfected with the HSA-L-IGF2R61A encoding plasmid. HSA-L-IGF2R61A was affinity-purified by Protein A membrane column. […] Myosin heavy chain (MyHC) was immunostained and imaged by a fluorescence microscope.
Suspension CHO cells were transiently transfected with the IGF2-hFcm encoding plasmid. […] After quantification of the stained MyHC, the percentage area of MyHC was calculated as the percent of pixels within the field that are illuminated above background in the stained channel. […] Significance was determined by a p-value less than 0.05 by the one-way ANOVA Tukey Honest Significant Difference test.

Data set [2] deals with DM1 human myoblast. Kind of data set: Myogenic gene expression fold change in DM1 human myoblast. The format is cell-based. As to conditions: 48 h; BMP7 50 ng/mL, Butyrate 100 nM, IGF2 200 ng/mL. The procedure: Myoblasts were cultured 48 h in the presence of factors (BMP7 50 ng/mL, Butyrate 100 nM, IGF2 200 ng/mL).
Myoblasts were cultured 96 h in the presence of factors (IGF2 200 ng/ml). […] Myoblasts were cultured 48 h in the presence of factors (IGF2 200 ng/mL).
IGF2 was tested individually for its ability to promote proliferation and/or fusion of human muscle progenitor cells from an individual with myotonic dystrophy type 1 (hMD)—a muscular dystrophy caused by mutations in the DMPK1 gene. The effect of IGF2 on myogenic activity was assayed in biological triplicate across a range of concentrations centered around expected physiological levels by adding each factor to hMD myoblasts for 72 hours with daily media changes (DMEM +2% horse serum) and a second pulse of factors at the first media change. After 72 or 96 hours, cells were pulsed for 2-5 hours with EdU (30 uM), ethanol fixed, stained with Hoescht 3342, immunostained for proliferation—as measured by the percent of cells staining positive for EdU (% EdU)-, and immunostained for differentiation—as measured by the increase in cellular area staining positive for embryonic myosin heavy chain (% eMyHC) relative to the negative controls, which received media and vehicle only. Wells were imaged on a Keyence BZ-100 at 4×, the images quantified in Cell Profiler, and the statistics were computed in R. Additionally, RNA was extracted from myoblast and select transcript abundances quantified by qPCR.

Data set [3] relates to healthy human muscle precursors from person. The data set is described as follows: In vitro myogenesis assay, healthy human muscle precursors. The format is cell-based. The procedure:
(§1) Human muscle progenitor cells (early passage myoblasts) were cultured and expanded in growth medium: Ham's F-10 (Gibco), 20% Bovine Growth Serum (Hyclone), 5 ng/mL FGF2 and 1% penicillin-streptomycin on Matrigel coated plates (1:300 matrigel: PBS), at 37° C. and 5% CO2. For experimental conditions, cells were plated at 40,000 cells/well on Matrigel coated 8-well chamber slides in 250-500 μL medium per well (1:100 matrigel: PBS) in human fusion medium: DMEM (Gibco)+2% horse serum (Hyclone). One hour after plating, human myoblasts were treated with 50% respective media: […] myoblasts were cultured for 24 hours in the above conditions, at 37° C. in 10% CO2 incubator. BrdU (300 uM) in DMSO was added for 2 hours prior to fixation with cold 70% ethanol and stored at 4° C. until staining.
(§2) Following permeabilization in PBS+0.25% t-Octylphenoxypolyethoxyethanol (Triton™ X-100), antigen retrieval was performed. Primary staining was performed with primary antibodies including: a species-specific monoclonal antibody for mouse anti-embryonic Myosin Heavy Chain (eMyHC, hybridoma clone 1.652, Developmental Studies Hybridoma Bank) and Rat-anti-BrdU (Abcam Inc. ab6326). […]

Data set [4] concerns female C57/BL6 (NIA) mice (20 months of age). Kind of data set: Acute injury model (cardiotoxin in tibialis anterior). Type of data set: in vivo. As to conditions: IM 0.4 ug/20 μL every other day, vs vehicle (HSA). The procedure: The acute injury model of Example 18 was used. […] female C57/BL6 (NIA) mice (20 months of age) were injected intramuscularly (IM) in each tibialis anterior with cardiotoxin at day one (10 ug/20 μL) and from day two the mice were given IM injections every other day with 0.4 ug/20 μL of 6HIS-HSA-IGF2R61A (SEQ ID NO: 34) or vehicle (0.4 ug/20 μL of HSA).

The test system of data set [5] is human DM1 muscle precursors from person. The data set is described as follows: In vitro myogenesis assay, human DM1 muscle precursors. Type of data set: cell-based. As to conditions: across a range of test article concentrations. The procedure:
as §1, §2

Data set [6] can be described thus: Murine pharmacokinetics, intravenous, ELISA, non-compartment analysis. Type of data set: in vivo, mice. As to conditions: mice. The procedure:
Murine pharmacokinetics (PK) represents the absorption, distribution, metabolism, and elimination of drugs from the body. The pharmacokinetic profile of the therapeutic polypeptides were determined in mice (10-12 weeks old). Mice were fed ad libitum and housed under controlled conditions of lighting (12-hour light/12-hour dark) and temperature (22-24° C.). Mice were allowed to acclimate for 3 days prior to the initiation of the experiment. Intravenous (IV) injection in 10-12 weeks old mice. Engineered mitogenic polypeptides concentrations in the samples were measured by ELISA. Various pharmacokinetics will be calculated as well as the absorption/elimination dynamics following different routes of administration.

As to “IGF2-hFc4: Human IGF2-hFc4, SEQ ID NO: 39”, the “% MyHC” value in data set [1] was found to be 6.901%.
As for `CCCC(=O)[O-].[Na+]` [NaBut, sodium butyrate], in data set [2], the “MYF5 expression fold change compared to FM (vehicle)” value was 1.128, the “MYOD1 expression fold change compared to FM (vehicle)” value is 1.095 and the “MYOG expression fold change compared to FM (vehicle)” value turned out to be 1.020.
As to “HSA-IGF2R61A: His tagged HSA fusion IGF2 R61A mutant with a long linker, SEQ ID NO: 34”, the “activity relative to IGF2 at equimolar concentrations” value in data set [3] (across a range of test article concentrations) is given as “equal activity”. The “activity relative to HSA-IGF2 at equimolar concentrations” value in data set [3] (before or after size exclusion purification via HPLC) is “equal or increased activity”. For the same compound, in data set [4], the “force production (max contraction rate)” value is given as “increased force production”, the “force production (specific force-frequency)” value is “increased force production”, the “muscle fatigue (specific fatigue index)” value is on record as “reduced muscle fatigue” and the muscle mass result is reported as “increased muscle mass”. Also, in data set [4], the “regenerative index (number of new fibers per square millimeter)” value is “increased regenerative index” and the relation rates entry is reported as “improved relation rates”. The “activity relative to IGF2 at equimolar concentrations” value in data set [5] was “equal activity”. For the same compound, in data set [6], the “serum half-life compared to the natural sequence of IGF2” value is “significantly improved serum half-life”.
